The text below walks through data of US20130150377A1, “Tetrahydropyridinyl and Dihydropyrrolyl Compounds and the Use Thereof” (SHIONOGI & CO., LTD., priority 2008, published 2013).

The target of the assay is T1, N-type calcium channel (NTCC) (Homo sapiens, UniProt Q00975).
T1 construct: endogenous in cells; host or cells: differentiated IMR32 cells (ATCC)
T1 sequence (Q00975 whole entry): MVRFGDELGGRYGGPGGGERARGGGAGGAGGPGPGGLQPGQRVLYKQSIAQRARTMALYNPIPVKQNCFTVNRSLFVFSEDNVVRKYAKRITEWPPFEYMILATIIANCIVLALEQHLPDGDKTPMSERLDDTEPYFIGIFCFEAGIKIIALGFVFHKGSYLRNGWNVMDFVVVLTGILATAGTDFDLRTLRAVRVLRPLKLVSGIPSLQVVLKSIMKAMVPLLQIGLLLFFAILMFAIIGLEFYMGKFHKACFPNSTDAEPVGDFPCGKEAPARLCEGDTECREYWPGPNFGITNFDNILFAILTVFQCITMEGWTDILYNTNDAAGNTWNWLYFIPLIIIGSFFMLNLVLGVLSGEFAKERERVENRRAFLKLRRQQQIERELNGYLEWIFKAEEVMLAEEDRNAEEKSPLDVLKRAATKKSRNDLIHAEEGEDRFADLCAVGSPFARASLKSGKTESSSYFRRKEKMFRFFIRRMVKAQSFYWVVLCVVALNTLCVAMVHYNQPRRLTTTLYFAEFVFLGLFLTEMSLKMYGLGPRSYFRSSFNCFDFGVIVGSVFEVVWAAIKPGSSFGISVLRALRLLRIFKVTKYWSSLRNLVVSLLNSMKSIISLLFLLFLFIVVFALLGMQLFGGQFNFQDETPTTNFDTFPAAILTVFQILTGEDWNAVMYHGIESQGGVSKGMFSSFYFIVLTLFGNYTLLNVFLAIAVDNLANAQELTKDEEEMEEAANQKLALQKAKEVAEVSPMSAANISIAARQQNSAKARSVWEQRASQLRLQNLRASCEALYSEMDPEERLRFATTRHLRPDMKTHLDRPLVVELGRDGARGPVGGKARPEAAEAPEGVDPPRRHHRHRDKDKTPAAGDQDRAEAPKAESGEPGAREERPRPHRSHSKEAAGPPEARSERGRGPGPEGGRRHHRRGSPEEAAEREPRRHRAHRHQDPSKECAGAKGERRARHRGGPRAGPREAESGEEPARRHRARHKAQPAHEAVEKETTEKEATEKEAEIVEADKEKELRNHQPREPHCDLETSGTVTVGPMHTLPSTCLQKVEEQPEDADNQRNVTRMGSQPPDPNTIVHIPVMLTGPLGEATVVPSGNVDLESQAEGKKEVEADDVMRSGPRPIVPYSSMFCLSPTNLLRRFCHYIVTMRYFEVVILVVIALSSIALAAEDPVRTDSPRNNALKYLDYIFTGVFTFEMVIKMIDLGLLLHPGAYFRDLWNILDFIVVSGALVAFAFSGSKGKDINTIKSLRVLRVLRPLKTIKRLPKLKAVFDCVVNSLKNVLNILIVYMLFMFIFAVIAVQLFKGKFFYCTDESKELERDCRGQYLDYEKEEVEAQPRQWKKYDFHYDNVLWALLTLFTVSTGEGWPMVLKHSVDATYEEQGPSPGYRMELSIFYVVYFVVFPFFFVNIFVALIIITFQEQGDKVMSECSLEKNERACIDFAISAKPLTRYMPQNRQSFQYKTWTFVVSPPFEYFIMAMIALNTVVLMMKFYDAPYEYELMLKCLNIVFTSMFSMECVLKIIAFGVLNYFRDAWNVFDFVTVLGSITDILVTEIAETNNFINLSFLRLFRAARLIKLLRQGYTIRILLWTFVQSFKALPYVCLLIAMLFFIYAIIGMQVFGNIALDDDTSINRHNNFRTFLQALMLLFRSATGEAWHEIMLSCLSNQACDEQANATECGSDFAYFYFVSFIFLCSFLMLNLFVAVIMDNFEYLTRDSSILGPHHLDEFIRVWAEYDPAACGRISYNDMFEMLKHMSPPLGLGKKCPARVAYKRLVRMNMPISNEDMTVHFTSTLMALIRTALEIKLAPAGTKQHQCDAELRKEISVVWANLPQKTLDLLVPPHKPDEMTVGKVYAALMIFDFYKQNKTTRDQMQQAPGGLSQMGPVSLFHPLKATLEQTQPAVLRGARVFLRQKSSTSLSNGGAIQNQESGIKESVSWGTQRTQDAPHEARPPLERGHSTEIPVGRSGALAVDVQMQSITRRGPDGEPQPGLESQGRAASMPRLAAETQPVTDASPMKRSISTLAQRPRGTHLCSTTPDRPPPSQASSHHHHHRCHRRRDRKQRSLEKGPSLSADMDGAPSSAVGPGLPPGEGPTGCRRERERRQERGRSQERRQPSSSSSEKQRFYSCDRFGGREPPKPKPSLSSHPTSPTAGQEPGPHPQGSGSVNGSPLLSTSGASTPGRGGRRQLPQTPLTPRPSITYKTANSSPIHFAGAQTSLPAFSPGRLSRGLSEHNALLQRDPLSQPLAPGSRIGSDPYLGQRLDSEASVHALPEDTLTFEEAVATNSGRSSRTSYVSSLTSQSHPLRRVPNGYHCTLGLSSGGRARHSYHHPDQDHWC
T1 sequence (P54289 25-956 partner limits assumed): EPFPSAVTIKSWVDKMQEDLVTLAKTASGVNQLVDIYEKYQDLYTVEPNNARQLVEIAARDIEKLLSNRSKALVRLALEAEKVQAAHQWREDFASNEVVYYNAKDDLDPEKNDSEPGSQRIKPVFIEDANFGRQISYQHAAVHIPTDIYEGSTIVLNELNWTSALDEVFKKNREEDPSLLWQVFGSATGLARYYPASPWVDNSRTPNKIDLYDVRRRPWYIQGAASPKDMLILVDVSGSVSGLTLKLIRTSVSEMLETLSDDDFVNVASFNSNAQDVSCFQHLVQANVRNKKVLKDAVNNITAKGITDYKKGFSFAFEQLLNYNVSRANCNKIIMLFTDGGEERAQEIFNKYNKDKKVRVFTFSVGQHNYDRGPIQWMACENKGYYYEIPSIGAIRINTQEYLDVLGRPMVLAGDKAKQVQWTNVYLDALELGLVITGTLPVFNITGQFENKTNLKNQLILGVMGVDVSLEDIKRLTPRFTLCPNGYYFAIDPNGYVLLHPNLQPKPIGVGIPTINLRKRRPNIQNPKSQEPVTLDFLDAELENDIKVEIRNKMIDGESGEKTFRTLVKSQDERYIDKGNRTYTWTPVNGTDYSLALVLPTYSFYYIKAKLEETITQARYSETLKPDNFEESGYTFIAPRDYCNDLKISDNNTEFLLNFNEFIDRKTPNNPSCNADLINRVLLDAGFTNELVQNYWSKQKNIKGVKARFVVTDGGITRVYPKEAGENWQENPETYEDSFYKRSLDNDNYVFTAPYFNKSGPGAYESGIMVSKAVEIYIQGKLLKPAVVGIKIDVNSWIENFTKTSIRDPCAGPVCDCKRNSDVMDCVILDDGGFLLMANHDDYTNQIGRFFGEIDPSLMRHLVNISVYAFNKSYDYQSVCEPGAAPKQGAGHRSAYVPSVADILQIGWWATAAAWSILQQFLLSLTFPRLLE
T1 sequence (P54289 957-1103 partner limits assumed): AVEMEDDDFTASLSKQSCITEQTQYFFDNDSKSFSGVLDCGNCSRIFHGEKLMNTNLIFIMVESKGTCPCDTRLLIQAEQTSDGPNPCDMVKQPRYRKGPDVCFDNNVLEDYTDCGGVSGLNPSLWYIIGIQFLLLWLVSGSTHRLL
T1 sequence (P54284 whole entry partner): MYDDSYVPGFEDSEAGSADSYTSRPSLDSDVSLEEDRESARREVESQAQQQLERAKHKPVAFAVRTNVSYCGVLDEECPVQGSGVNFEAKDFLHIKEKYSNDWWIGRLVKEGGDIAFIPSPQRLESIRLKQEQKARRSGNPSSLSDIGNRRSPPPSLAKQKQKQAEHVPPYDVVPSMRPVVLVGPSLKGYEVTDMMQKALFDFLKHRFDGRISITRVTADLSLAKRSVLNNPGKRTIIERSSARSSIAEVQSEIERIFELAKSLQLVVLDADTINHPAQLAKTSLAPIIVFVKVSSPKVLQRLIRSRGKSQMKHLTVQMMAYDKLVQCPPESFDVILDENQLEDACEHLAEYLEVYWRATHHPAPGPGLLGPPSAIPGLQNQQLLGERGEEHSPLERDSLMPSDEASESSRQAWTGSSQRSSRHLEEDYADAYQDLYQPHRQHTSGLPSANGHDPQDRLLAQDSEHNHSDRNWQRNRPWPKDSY
The assay can be described thus: FLIPR calcium mobilization assay for N-type calcium channel (differentiated IMR32 cells). In kind it is cell-based. Conditions: N-type calcium channel blockers, calcium mobilization in vitro assay. As for the experimental part: Cell maintenance and differentiation. Unless noted otherwise, cell culture reagents were purchased from Mediatech of Herndon, Md. IMR32 cells (American Type Culture Collection, ATCC, Manassas, Va.) were routinely cultured in growth medium consisting of minimum essential medium containing 10% fetal bovine serum (FBS, Hyclone, Logan, Utah), 100 U/mL penicillin, 100 μg/mL streptomycin, 2 mM L-glutamine, 1 mM sodium pyruvate, and 1×MEM non-essential amino acids. 80-90% confluent flasks of cells were differentiated using the following differentiation medium: Growth medium plus 1 mM dibutyryl cyclic AMP (Sigma, St. Louis, Mo.), and 2.5 μM bromodeoxyuridine (Sigma). Cells were differentiated for 8 days by replacing differentiation medium every 2-3 days.
FLIPR Calcium Mobilization Assay for N-type Calcium Channel.
One day prior to performing this assay, differentiated IMR32 cells were treated with 1× CellStripper, and seeded on poly-D-lysine-coated 96-well clear-bottom black plates (Becton Dickinson, Franklin Lakes, N.J.) at 200,000 cells/well. On the day of the assay, the cell plates were washed with IMR32 buffer (127 mM NaCl, 1 mM KCl, 2 mM MgCl2, 700 μM NaH2PO4, 5 mM CaCl2, 5 mM NaHCO3, 8 mM HEPES, 10 mM glucose, pH 7.4), then pre-stimulated with KCl and loaded as follows: […] of IMR32 buffer, 0.05 mL of each compound tested diluted in IMR32 buffer containing 20 μM nitrendipine (Sigma), and 0.1 mL KCl dissolved in IMR32 buffer, plus Fluo-4 were added (3 μM final concentration, Molecular Probes, Eugene, Oreg.). Final test compound concentrations ranged from about 846 pM to about 17 μM, final nitrendipine concentration was 5 μM, and final KCl concentration was 90 mM. After 1 hour, the cells were washed twice with 0.05 mL of each compound tested in nitrendipine-containing IMR32 buffer (no KCl or Fluo-4), and then replaced with 0.1 mL of each compound tested in nitrendipine-containing IMR32 buffer. Plates were then transferred to a Fluorimetric Imaging Plate Reader (FLIPR^96, Molecular Devices, Inc., Sunnyvale, Calif.) for assay. The FLIPR measured basal Fluo-4 fluorescence for 315 seconds (i.e., 5 minutes and 15 seconds), then added 0.1 mL KCl agonist dissolved in IMR32 buffer and measured fluorescence for another 45 seconds. Final test compound concentrations on the cells after FLIPR read ranged from about 846 pM to about 17 μM, final nitrendipine concentration was 5 μM, and final KCl concentration was 90 mM. Data were collected over the entire time course and analyzed using Excel, Graph Pad Prism (version 3.02, Graph Pad, San Diego, Calif.), or an in-house non-linear regression analysis software.
As to `O=C(NC1CC1)c1cccc(C2=CCN(S(=O)(=O)c3c(F)cc(F)cc3F)CC2)n1` [1′-(2,4,6-Trifluorobenzenesulfonyl)-1′,2′,3′,6′-tetrahydro-[2,4′]bipyridinyl-6-carboxylic acid cyclopropylamide], the IC50 worked out at 990 nM.
For `O=C(NC1CC1)c1cccc(C2=CCN(S(=O)(=O)c3ccc(Cl)cc3Cl)CC2)n1` [1′-(2,4-Dichlorobenzenesulfonyl)-1′,2′,3′,6′-tetrahydro-[2,4′]bipyridinyl-6-carboxylic acid cyclopropylamide] the value was 190 nM; for `CC(C)CS(=O)(=O)N1CC=C(c2cccc(C(=O)NC3CC3)n2)CC1` [1′-(2-Methylprop-1-ylsulfonyl)-1′,2′,3′,6′-tetrahydro-[2,4′]bipyridinyl-6-carboxylic acid cyclopropylamide], 1460 nM; for `O=C(NC1CC1)c1cccc(C2=CCN(S(=O)(=O)c3ccccc3C(F)(F)F)CC2)n1` [1′-(2-Trifluoromethylbenzenesulfonyl)-1′,2′,3′,6′-tetrahydro-[2,4′]bipyridinyl-6-carboxylic acid cyclopropylamide], 80 nM.
Consider `O=C(NC1CC1)c1cccc(C2=CCN(S(=O)(=O)CCC(F)(F)F)CC2)n1` [1′-(3,3,3-Trifluoropropylsulfonyl)-1′,2′,3′,6′-tetrahydro-[2,4′]bipyridinyl-6-carboxylic acid cyclopropylamide], for which the IC50 amounted to 3100 nM.
For `O=C(NC1CC1)c1cccc(C2=CCN(S(=O)(=O)c3cc(Cl)cc(Cl)c3)CC2)n1` [1′-(3,5-Dichlorobenzenesulfonyl)-1′,2′,3′,6′-tetrahydro-[2,4′]bipyridinyl-6-carboxylic acid cyclopropylamide] the value was 50 nM; for `O=C(NC1CC1)c1cccc(C2=CCN(S(=O)(=O)c3cccc(Cl)c3)CC2)n1` [1′-(3-Chlorobenzenesulfonyl)-1′,2′,3′,6′-tetrahydro-[2,4′]bipyridinyl-6-carboxylic acid cyclopropylamide], 80 nM; for `N#Cc1cc(S(=O)(=O)N2CC=C(c3cccc(C(=O)NC4CC4)n3)CC2)ccc1F` [1′-(3-Cyano-4-fluorobenzenesulfonyl)-1′,2′,3′,6′-tetrahydro-[2,4′]bipyridinyl-6-carboxylic acid cyclopropylamide], 770 nM.
For `N#Cc1cccc(S(=O)(=O)N2CC=C(c3cccc(C(=O)NC4CC4)n3)CC2)c1` [1′-(3-Cyanobenzenesulfonyl)-1′,2′,3′,6′-tetrahydro-[2,4′]bipyridinyl-6-carboxylic acid cyclopropylamide] the value was 50 nM; for `O=C(NC1CC1)c1cccc(C2=CCN(S(=O)(=O)c3cccc(OC(F)(F)F)c3)CC2)n1` [1′-(3-Trifluoromethoxybenzenesulfonyl)-1′,2′,3′,6′-tetrahydro-[2,4′]bipyridinyl-6-carboxylic acid cyclopropylamide], 40 nM; for `O=S(=O)(c1cccc(C(F)(F)F)c1)N1CC=C(c2cccc(CO)n2)CC1` [1′-(3-Trifluoromethylbenzenesulfonyl)-1′,2′,3′,6′--tetrahydro-[2,4′]bipyridinyl-6-yl]methanol], 4240 nM.
As to `O=C(NCC(F)(F)F)c1cccc(C2=CCN(S(=O)(=O)c3cccc(C(F)(F)F)c3)CC2)n1` [1′-(3-Trifluoromethylbenzenesulfonyl)-1′,2′,3′,6′-tetrahydro-[2,4′]-bipyridinyl-6-carboxylic acid 2,2,2-trifluoroethylamide], the IC50 came out at 30 nM.
For `O=C(NCCC(F)(F)F)c1cccc(C2=CCN(S(=O)(=O)c3cccc(C(F)(F)F)c3)CC2)n1` [1′-(3-Trifluoromethylbenzenesulfonyl)-1′,2′,3′,6′-tetrahydro-[2,4′]-bipyridinyl-6-carboxylic acid 3,3,3-trifluoropropylamide] the value was 50 nM.
The same measure for `O=C(NC(CO)CO)c1cccc(C2=CCN(S(=O)(=O)c3cccc(C(F)(F)F)c3)CC2)n1` [1′-(3-Trifluoromethylbenzenesulfonyl)-1′,2′,3′,6′-tetrahydro-[2,4′]bipyridinyl-6-carboxylic acid 1,3-dihydroxyprop-2-ylamide]: 90 nM.
For `O=C(NCCO)c1cccc(C2=CCN(S(=O)(=O)c3cccc(C(F)(F)F)c3)CC2)n1` [1′-(3-Trifluoromethylbenzenesulfonyl)-1′,2′,3′,6′-tetrahydro-[2,4′]bipyridinyl-6-carboxylic acid 2-hydroxyethylamide] the value was 70 nM.
Take `O=C(NCC(F)(F)F)c1ncccc1C1=CCN(S(=O)(=O)c2cccc(C(F)(F)F)c2)CC1` [1′-(3-Trifluoromethylbenzenesulfonyl)-1′,2′,3′,6′-tetrahydro-[3,4′]bipyridinyl-2-carboxylic acid 2,2,2-trifluoroethylamide]: the IC50 stood at 660 nM.
As for `O=C(NCCC(F)(F)F)c1ncccc1C1=CCN(S(=O)(=O)c2cccc(C(F)(F)F)c2)CC1` [1′-(3-Trifluoromethylbenzenesulfonyl)-1′,2′,3′,6′-tetrahydro-[3,4′]bipyridinyl-2-carboxylic acid 3,3,3-trifluoropropylamide], the IC50 worked out at 420 nM.
For `O=C(NCC1CC1)c1ncccc1C1=CCN(S(=O)(=O)c2cccc(C(F)(F)F)c2)CC1` [1′-(3-Trifluoromethylbenzenesulfonyl)-1′,2′,3′,6′-tetrahydro-[3,4′]bipyridinyl-2-carboxylic acid cyclopropylmethylamide] the value was 140 nM; for `COC(=O)c1ncccc1C1=CCN(S(=O)(=O)c2cccc(C(F)(F)F)c2)CC1` [1′-(3-Trifluoromethylbenzenesulfonyl)-1′,2′,3′,6′-tetrahydro-[3,4′]bipyridinyl-2-carboxylic acid methyl ester], greater than 20000 nM; for `O=C(NC1CC1)c1cccc(C2=CCN(S(=O)(=O)Cc3cccc(C(F)(F)F)c3)CC2)n1` [1′-(3-Trifluoromethylbenzylsulfonyl)-1′,2′,3′,6′-tetrahydro-[2,4′]bipyridinyl-6-carboxylic acid cyclopropylamide], 670 nM.
With `O=C(NC1CC1)c1cccc(C2=CCN(S(=O)(=O)c3ccc(F)cc3)CC2)n1` [1′-(4-Fluorobenzenesulfonyl)-1′,2′,3′,6′-tetrahydro-[2,4′]bipyridinyl-6-carboxylic acid cyclopropylamide], the IC50 amounted to 350 nM.
Consider `O=C(NCC(F)(F)F)c1cccc(C2=CCN(S(=O)(=O)c3ccc(OC(F)(F)F)cc3)CC2)n1` [1′-(4-Trifluoromethoxybenzenesulfonyl)-1′,2′,3′,6′-tetrahydro-[2,4′]-bipyridinyl-6-carboxylic acid 2,2,2-trifluoroethylamide], for which the IC50 is 430 nM.
The same measure for `O=C(NCCC(F)(F)F)c1cccc(C2=CCN(S(=O)(=O)c3ccc(OC(F)(F)F)cc3)CC2)n1` [1′-(4-Trifluoromethoxybenzenesulfonyl)-1′,2′,3′,6′-tetrahydro-[2,4′]-bipyridinyl-6-carboxylic acid 3,3,3-trifluoropropylamide]: 250 nM; for `O=C(Nc1ccc(F)cc1)c1cccc(C2=CCN(S(=O)(=O)c3ccc(OC(F)(F)F)cc3)CC2)n1` [1′-(4-Trifluoromethoxybenzenesulfonyl)-1′,2′,3′,6′-tetrahydro-[2,4′]-bipyridinyl-6-carboxylic acid 4-fluorophenylamide]: 1920 nM.
The same measure for `O=C(NC1CC1)c1cccc(C2=CCN(S(=O)(=O)c3ccc(OC(F)(F)F)cc3)CC2)n1` [1′-(4-Trifluoromethoxybenzenesulfonyl)-1′,2′,3′,6′-tetrahydro-[2,4′]bipyridinyl-6-carboxylic acid cyclopropylamide]: 290 nM.
For `O=C(NCC(F)(F)F)c1ncccc1C1=CCN(S(=O)(=O)c2ccc(OC(F)(F)F)cc2)CC1` [1′-(4-Trifluoromethoxybenzenesulfonyl)-1′,2′,3′,6′-tetrahydro-[3,4′]bipyridinyl-2-carboxylic acid 2,2,2-trifluoroethylamide] the value was 960 nM; for `O=C(NCCC(F)(F)F)c1ncccc1C1=CCN(S(=O)(=O)c2ccc(OC(F)(F)F)cc2)CC1` [1′-(4-Trifluoromethoxybenzenesulfonyl)-1′,2′,3′,6′-tetrahydro-[3,4′]bipyridinyl-2-carboxylic acid 3,3,3-trifluoropropylamide], 940 nM.

What is called IC50 is the concentration at which inhibition is half-maximal.
